Results as given in patent US20050106582A1, “Compositions and methods utilizing stable reporter cell lines for detection of CREB-dependent signal transduction” (Stratagene, priority 1999, published 2005).
Like-named read-outs stand apart in the source and are kept apart here.

What was measured:
GAL4-CREB [1] = assay: Luciferase reporter assay in RCLH-CREB stable cells treated with extracellular stimuli; format: cell-based, human; settings: 5 hours
GAL4-CREB [2] = format: cell-based, human; settings: transient assays, 10 ug/ml; data not shown

Molecule	stimulation of luciferase expression (GAL4-CREB [1]; in the presence of 100 uM forskolin)	effect on luciferase expression (GAL4-CREB [1]; 50 ug/ml)	stimulation of luciferase expression (GAL4-CREB [2]) [fold]
CCCCCCCCCCCCCC(=O)O[C@@H]1[C@@H](C)[C@@]2(O)[C@@H](C=C(CO)C[C@]3(O)C(=O)C(C)=C[C@@H]23)[C@@H]2C(C)(C)[C@]12OC(C)=O [PMA, phorbol-12-myristate-13-acetate]	approximately 70 fold	–	–
adenylate cyclase toxin [AC toxin]	–	approximately 7 fold	13
